Literature values, collected in paper PMC11902296, “cAmbly: A non-toxic cell-penetrating peptide derived from Amblyomin-X with targeted delivery to mitochondrial and cytoplasmic proteins” (PLOS One, 2025).
No end group written: not given here.

What was measured:
tumor cells [1] = details: isolated domain of Amblyomin-X
Excerpt: Amblyomin-X is a promising antitumoral protein that requires cellular internalization to exert its activity.

tumor cells [2] = details: isolated domain of Amblyomin-X; remark: listed apart in the source
Excerpt: One promising candidate has emerged from Amblyomin-X, a Kunitz-type protease inhibitor derived from the salivary glands of the tick Amblyomma sculptum. […] Structurally, Amblyomin-X consists of two distinct regions: a non-permeant Kunitz-type domain located at the N-terminus, which mediates the protein’s cytotoxic activity, and a disordered C-terminal tail.

Sequence: EEQTHFHFESPKLISFKVQDYWILNDIMKKNLTGISLKSEEEDADSGEID [cAmbly]
- ability to enter cells (tumor cells [1]): can penetrate cells
- cytotoxic activity (tumor cells [2]): lacks cytotoxic activity
